Test results published in paper PMC7377239, “Cardiovascular Effects of Polychlorinated Biphenyls and Their Major Metabolites” (Environmental Health Perspectives, 2020).
Read-outs that look alike come from different tables or passages of the source.

Legend:
HUVECs = test: High-content imaging cytotoxicity in HUVECs, 24 h; format: cell-based, human; details: Homo sapiens, HUVEC, 24 h, HUVECs; for viability at 0.01 µM / activity at 0.01 µM / viability at 0.1 µM / activity at 0.1 µM / viability at 1 µM / activity at 1 µM / viability at 10 µM / activity at 10 µM / viability at 100 µM / activity at 100 µM: 0.00 µM = 100.00; for viability at 0.1 µM / activity at 0.1 µM: 0.10 µM; for minimal effective concentration: top concentration 100.00 µM
Outline: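 HUVECs (passages 1–5) grown to monolayer over 3–5 d, then exposed 24 h at 37°C, 5% CO2; stained with Hoechst 33342, MitoTracker Orange and calcein AM and imaged at 10×. Readouts normalized to 0.5% DMSO vehicle, four-parameter logistic fit; POD at one-SD cutoff, 100μM assigned when no response.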

[1] = test system: iCell endothelial cells (human iPSC-derived ECs); test: Tube formation (tubulogenesis) assay in iCell endothelial cells, 18 h; format: cell-based; details: Homo sapiens, Endothelial cell, iPSC-EC tube formation, 18 hr; for activity at 0.1 µM: 0.10 µM; for minimal effective concentration: top concentration 100.00 µM
Outline: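 iCell ECs (passages 1–5) seeded 7,500 cells/well on reduced-growth-factor Geltrex in starvation medium, exposed overnight at 37°C to compounds in triplicate concentration–response (0.5% DMSO vehicle). Calcein AM staining, 4× imaging, angiogenesis image analysis; readouts normalized to vehicle, four-parameter logistic fit, POD at 1 SD of vehicle; 100 μM assigned NOAEL if no response.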

[2] = 24 hr, read-out: huvec.cyto.24hr
[3] = 24 hr, read-out: huvec.mito.24hr
[4] = 24 hr, read-out: huvec.mitoint.24hr
[5] = 24 hr, read-out: huvec.nma.24hr
[6] = 24 hrs, read-out: huvec.tc.24hrs
[7] = 0.00 µM control = 100.00, read-out: endo.mtl.18hr
[8] = 0.00 µM control = 100.00, read-out: endo.tlps.18hr
[9] = 0.00 µM control = 100.00, read-out: endo.tta.18hr
[10] = 0.00 µM control = 100.00, read-out: endo.ttl.18hr

## Oc1ccc(O)c(-c2ccc(Cl)cc2)c1 [2',5'-DiOH PCB3]
HUVECs; [2]
  viability at 0.01 µM: 84.3%
  viability at 0.1 µM: 103%
  viability at 1 µM: 75%
  viability at 10 µM: 57.5%
  viability at 100 µM: 2.82%
HUVECs; [3]
  activity at 0.01 µM: 83.2%
  activity at 0.1 µM: 103%
  activity at 1 µM: 73.6%
  activity at 10 µM: 27.6%
  activity at 100 µM: 0%
HUVECs; [4]
  activity at 0.01 µM: 99.1%
  activity at 0.1 µM: 112%
  activity at 1 µM: 104%
  activity at 10 µM: 10.3%
  activity at 100 µM: 0%
HUVECs; [5]
  activity at 0.01 µM: 101%
  activity at 0.1 µM: 97.2%
  activity at 1 µM: 101%
  activity at 10 µM: 96.2%
  activity at 100 µM: 83.3%
HUVECs; 24 hr, read-out: huvec.cyto.24hr POD
  minimal effective concentration: 0.12 µM
HUVECs; 24 hr, read-out: huvec.mito.24hr POD
  minimal effective concentration: 0.13 µM
HUVECs; 24 hr, read-out: huvec.mitoint.24hr POD
  minimal effective concentration: 3.51 µM
HUVECs; 24 hr, read-out: huvec.nma.24hr POD
  minimal effective concentration: 8.87 µM
HUVECs; [6]
  viability at 0.01 µM: 84.5%
  viability at 0.1 µM: 103%
  viability at 1 µM: 75%
  viability at 10 µM: 57.7%
  viability at 100 µM: 89.6%
HUVECs; 24 hrs, read-out: huvec.tc.24hrs POD
  minimal effective concentration: 0.12 µM
[1]; [7]
  activity at 0.01 µM: 99.4%
  activity at 0.1 µM: 104%
  activity at 1 µM: 62%
  activity at 10 µM: 61.7%
  activity at 100 µM: 58.4%
[1]; [8]
  activity at 0.01 µM: 100%
  activity at 0.1 µM: 103%
  activity at 1 µM: 66.5%
  activity at 10 µM: 30.6%
  activity at 100 µM: 7.76%
[1]; [9]
  activity at 0.01 µM: 127%
  activity at 0.1 µM: 104%
  activity at 1 µM: 60.7%
  activity at 10 µM: 64.9%
  activity at 100 µM: 0.41%
[1]; [10]
  activity at 0.01 µM: 115%
  activity at 0.1 µM: 98.5%
  activity at 1 µM: 55%
  activity at 10 µM: 63%
  activity at 100 µM: 0.74%
[1]; read-out: endo.mtl.18hr POD
  minimal effective concentration: 0.47 µM
[1]; read-out: endo.tlps.18hr POD
  minimal effective concentration: 0.53 µM
[1]; read-out: endo.tta.18hr POD
  minimal effective concentration: 1.63 µM
[1]; read-out: endo.ttl.18hr POD
  minimal effective concentration: 1.51 µM
